Assay results as given in US10781224B2, “Bis(oxymethyl)phosphinic acid and biogenic metal salts thereof as regulators of plant growth and development” (priority 2016, dated 2020).

Tested on: winter wheat (Vershin variety)
Experiment: Winter wheat seed treatment with BHMPA salts: germinating power (length and mass of roots and sprouts)
Assay type: in vivo
Procedure: Experimental versions—soaking seeds in BHMPA solutions and solutions of BHMPA Ca, Mg, Na, Co, Mn, Cu, and Zn salts at 1·10^−6-1·10^−12% concentrations (doses). The studies were conducted in laboratory in Petri dishes; seed bed—two layers of filter paper. 50 seeds soaked in water (control) and in the solutions of the tested compounds (experimental) were placed into each dish. Wheat, corn, and rice seeds were exposed for one hour.
Seed germination energy and rate were calculated in percent as an arithmetic mean of the four experimental results (germination energy on the 4th day, wheat germination on the 8th day, rice and corn germination—on the 7th day). Germination was determined based on the germinating power indicators (length of the roots and sprouts and their wet and dry mass per 100 shoots).
The effect of pre-sowing seed treatment with the claimed BHMPA salts of biogenic metals was studied on winter wheat (Vershin variety), corn (Krasnodar 385 MV variety), and rice (Diamant variety).
The above data describe the seed viability only at the initial stage of germination, while the germination ability at the later stage of germination is defined by the initial germinating power. The method for the determination of the germinating power comprises measuring the height of the sprouts and primary roots, as well as the biomass and the dry mass thereof per 100 seedlings. [M. A. Kartuzova. Initial Germinating Power as Method of Biological Assessment of Seed Quality. Selection and Seed Farming, #2, 1953].

[1] = comparative study, 1·10^−9% solution

With `O.O.O=P([O-])(CO)CO.O=P([O-])(CO)CO.[Mn+2]` [Mn-salt, Manganese BHMPA Salt] the Length, root (1·10^−6% solution) was 2.8 cm, the “Length, root, + % to control” value (1·10^−6% solution) was −7% and the Length, sprout (1·10^−6% solution) was 3.4 cm. The “Length, sprout, + % to control” value (1·10^−6% solution) was −5.5%, the Mass, dry, root (1·10^−6% solution) was 0.32 g/100 plantlings and the “Mass, dry, root, + % to control” value (1·10^−6% solution) was −2%. The Mass, dry, sprout (1·10^−6% solution) was 0.44 g/100 plantlings, the “Mass, dry, sprout, + % to control” value (1·10^−6% solution) was −10% and the Mass, wet, root (1·10^−6% solution) was 1.38 g/100 plantlings. The “Mass, wet, root, + % to control” value (1·10^−6% solution) was −9%, the Mass, wet, sprout (1·10^−6% solution) was 3.37 g/100 plantlings and the “Mass, wet, sprout, + % to control” value (1·10^−6% solution) was −6%. The “germinating power results vs control” value (1·10^−6% solution) was “lower than those of the control”, the Length, root (1·10^−7% solution) was 3.8 cm and the “Length, root, + % to control” value (1·10^−7% solution) was 27%. The Length, sprout (1·10^−7% solution) was 4.8 cm, the “Length, sprout, + % to control” value (1·10^−7% solution) was 33% and the Mass, dry, root (1·10^−7% solution) was 0.50 g/100 plantlings. For the same compound, the “Mass, dry, root, + % to control” value (1·10^−7% solution) was 35%, the Mass, dry, sprout (1·10^−7% solution) was 0.58 g/100 plantlings and the “Mass, dry, sprout, + % to control” value (1·10^−7% solution) was 18%. For the same compound, the Mass, wet, root (1·10^−7% solution) was 1.74 g/100 plantlings, the “Mass, wet, root, + % to control” value (1·10^−7% solution) was 14.5% and the Mass, wet, sprout (1·10^−7% solution) was 3.84 g/100 plantlings. For the same compound, the “Mass, wet, sprout, + % to control” value (1·10^−7% solution) was 7%, the Length, root (1·10^−8% solution) was 4.4 cm and the “Length, root, + % to control” value (1·10^−8% solution) was 47%. For the same compound, the Length, sprout (1·10^−8% solution) was 6.0 cm, the “Length, sprout, + % to control” value (1·10^−8% solution) was 67% and the Mass, dry, root (1·10^−8% solution) was 0.53 g/100 plantlings. For the same compound, the “Mass, dry, root, + % to control” value (1·10^−8% solution) was 43%, the Mass, dry, sprout (1·10^−8% solution) was 0.67 g/100 plantlings and the “Mass, dry, sprout, + % to control” value (1·10^−8% solution) was 37%. The Mass, wet, root (1·10^−8% solution) was 2.09 g/100 plantlings, the “Mass, wet, root, + % to control” value (1·10^−8% solution) was 37.5% and the Mass, wet, sprout (1·10^−8% solution) was 4.52 g/100 plantlings. For the same compound, the “Mass, wet, sprout, + % to control” value (1·10^−8% solution) was 25.5%, the Length, root (1·10^−9% solution) was 4.6 cm and the “Length, root, + % to control” value (1·10^−9% solution) was 53%. The Length, sprout (1·10^−9% solution) was 7.9 cm, the “Length, sprout, + % to control” value (1·10^−9% solution) was 119% and the Mass, dry, root (1·10^−9% solution) was 0.62 g/100 plantlings. For the same compound, the “Mass, dry, root, + % to control” value (1·10^−9% solution) was 67.5%, the Mass, dry, sprout (1·10^−9% solution) was 0.84 g/100 plantlings and the “Mass, dry, sprout, + % to control” value (1·10^−9% solution) was 71%. For the same compound, the Mass, wet, root (1·10^−9% solution) was 3.00 g/100 plantlings, the “Mass, wet, root, + % to control” value (1·10^−9% solution) was 97% and the Mass, wet, sprout (1·10^−9% solution) was 5.09 g/100 plantlings. For the same compound, the “Mass, wet, sprout, + % to control” value (1·10^−9% solution) was 41%, the Length, root (1·10^−10% solution) was 4.5 cm and the “Length, root, + % to control” value (1·10^−10% solution) was 50%. For the same compound, the Length, sprout (1·10^−10% solution) was 7.1 cm, the “Length, sprout, + % to control” value (1·10^−10% solution) was 97% and the Mass, dry, root (1·10^−10% solution) was 0.57 g/100 plantlings. The “Mass, dry, root, + % to control” value (1·10^−10% solution) was 54%, the Mass, dry, sprout (1·10^−10% solution) was 0.80 g/100 plantlings and the “Mass, dry, sprout, + % to control” value (1·10^−10% solution) was 63%. The Mass, wet, root (1·10^−10% solution) was 2.16 g/100 plantlings, the “Mass, wet, root, + % to control” value (1·10^−10% solution) was 142% and the Mass, wet, sprout (1·10^−10% solution) was 4.60 g/100 plantlings. For the same compound, the “Mass, wet, sprout, + % to control” value (1·10^−10% solution) was 28%, the Length, root (1·10^−11% solution) was 4.4 cm and the “Length, root, + % to control” value (1·10^−11% solution) was 47%. For the same compound, the Length, sprout (1·10^−11% solution) was 6.1 cm, the “Length, sprout, + % to control” value (1·10^−11% solution) was 69% and the Mass, dry, root (1·10^−11% solution) was 0.52 g/100 plantlings. The “Mass, dry, root, + % to control” value (1·10^−11% solution) was 40.5%, the Mass, dry, sprout (1·10^−11% solution) was 0.75 g/100 plantlings and the “Mass, dry, sprout, + % to control” value (1·10^−11% solution) was 53%. For the same compound, the Mass, wet, root (1·10^−11% solution) was 1.90 g/100 plantlings, the “Mass, wet, root, + % to control” value (1·10^−11% solution) was 34% and the Mass, wet, sprout (1·10^−11% solution) was 4.00 g/100 plantlings. The “Mass, wet, sprout, + % to control” value (1·10^−11% solution) was 11%, the Length, root (1·10^−12% solution) was 3.6 cm and the “Length, root, + % to control” value (1·10^−12% solution) was 20%. For the same compound, the Length, sprout (1·10^−12% solution) was 5.2 cm, the “Length, sprout, + % to control” value (1·10^−12% solution) was 44% and the Mass, dry, root (1·10^−12% solution) was 0.40 g/100 plantlings. The “Mass, dry, root, + % to control” value (1·10^−12% solution) was 8%, the Mass, dry, sprout (1·10^−12% solution) was 0.69 g/100 plantlings and the “Mass, dry, sprout, + % to control” value (1·10^−12% solution) was 31%. For the same compound, the Mass, wet, root (1·10^−12% solution) was 1.52 g/100 plantlings, the “Mass, wet, root, + % to control” value (1·10^−12% solution) was 0% and the Mass, wet, sprout (1·10^−12% solution) was 3.48 g/100 plantlings. For the same compound, the “Mass, wet, sprout, + % to control” value (1·10^−12% solution) was −3%, the Length, root [1] was 9.8 cm and the “Length, root, + % to control” value [1] was 13%. The Length, sprout [1] was 6.7 cm, the “Length, sprout, + % to control” value [1] was 8% and the Mass, dry, root [1] was 0.66 g/100 plantlings. The “Mass, dry, root, + % to control” value [1] was 6%, the Mass, dry, sprout [1] was 0.55 g/100 plantlings and the “Mass, dry, sprout, + % to control” value [1] was 8%. For the same compound, the Mass, wet, root [1] was 5.69 g/100 plantlings, the “Mass, wet, root, + % to control” value [1] was 57% and the Mass, wet, sprout [1] was 4.97 g/100 plantlings. The “Mass, wet, sprout, + % to control” value [1] was 25%.
